Measured values as given in ChEMBL document CHEMBL4376850, “1-Benzylpyrrolidine-3-amine-based BuChE inhibitors with anti-aggregating, antioxidant and metal-chelating properties as multifunctional agents against Alzheimer's disease” (Eur J Med Chem, 2020).
Calls of active or inactive are those of the source. The calls are words filed in the database; no cut-off is given here.

Legend:
[1] = target: Microtubule-associated protein tau (Homo sapiens) (UniProt P10636); assay: Inhibition of tau aggregation (unknown origin) at 10 uM expressed in Escherichia coli BL21 (DE3) incubated for 24 hrs by thioflavin T-based fluorometric assay relative to control
Chain of Microtubule-associated protein tau (Homo sapiens) (P10636 whole entry): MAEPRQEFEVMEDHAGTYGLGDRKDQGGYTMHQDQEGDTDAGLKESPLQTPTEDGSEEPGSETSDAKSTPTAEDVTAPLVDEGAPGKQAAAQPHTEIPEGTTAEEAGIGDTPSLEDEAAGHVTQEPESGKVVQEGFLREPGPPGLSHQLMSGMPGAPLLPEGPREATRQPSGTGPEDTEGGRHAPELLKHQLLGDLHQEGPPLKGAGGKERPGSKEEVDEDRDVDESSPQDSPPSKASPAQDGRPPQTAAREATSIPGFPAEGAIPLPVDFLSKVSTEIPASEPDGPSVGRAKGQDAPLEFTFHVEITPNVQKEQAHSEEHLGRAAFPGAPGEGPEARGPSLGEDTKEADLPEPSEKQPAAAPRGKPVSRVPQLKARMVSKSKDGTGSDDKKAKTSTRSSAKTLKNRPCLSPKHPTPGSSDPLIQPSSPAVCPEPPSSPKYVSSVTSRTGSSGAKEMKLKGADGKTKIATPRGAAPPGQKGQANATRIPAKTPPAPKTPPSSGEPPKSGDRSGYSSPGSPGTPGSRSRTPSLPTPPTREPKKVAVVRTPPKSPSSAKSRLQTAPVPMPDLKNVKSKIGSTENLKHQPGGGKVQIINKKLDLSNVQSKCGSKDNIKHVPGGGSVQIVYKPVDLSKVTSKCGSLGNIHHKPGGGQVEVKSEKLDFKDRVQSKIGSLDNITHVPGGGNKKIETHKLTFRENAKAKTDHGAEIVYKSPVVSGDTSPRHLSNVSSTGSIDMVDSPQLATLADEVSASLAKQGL

[2] = Antioxidant activity assessed as ABTS radical scavenging activity at 150 uM measured after 5 mins by spectrophotometric assay relative to control; type: functional
[3] = Antioxidant activity assessed as increase in total ferric ion reducing activity at 75 uM using FeCl3.H2O and TPTZ incubated for 5 mins by FRAP assay relative to control; type: functional; design: scale not given: the % may be the effect or the level left
[4] = Antioxidant activity assessed as increase in total ferric ion reducing activity at 150 uM using FeCl3.H2O and TPTZ incubated for 30 mins by FRAP assay relative to control; type: functional; design: scale not given: the % may be the effect or the level left
[5] = Antioxidant activity assessed as increase in total ferric ion reducing activity at 30 uM using FeCl3.H2O and TPTZ incubated for 30 mins by FRAP assay relative to control; type: functional; design: scale not given: the % may be the effect or the level left
[6] = Antioxidant activity assessed as increase in total ferric ion reducing activity at 150 uM using FeCl3.H2O and TPTZ incubated for 5 mins by FRAP assay relative to control; type: functional; design: scale not given: the % may be the effect or the level left
[7] = Antioxidant activity assessed as ABTS radical scavenging activity at 30 uM measured after 30 mins by spectrophotometric assay relative to control; type: functional
[8] = Antioxidant activity assessed as increase in total ferric ion reducing activity at 150 uM using FeCl3.H2O and TPTZ incubated for 60 mins by FRAP assay relative to control; type: functional; design: scale not given: the % may be the effect or the level left
[9] = target: Acetylcholinesterase (Electrophorus electricus) (UniProt O42275); assay: Inhibition of Electrophorus electricus AChE at 10 uM using acetylthiocholine iodide as substrate preincubated for 5 mins followed by substrate addition and measured after 5 mins by Ellman's method relative to control
Chain of Acetylcholinesterase (Electrophorus electricus) (O42275 24-633 limits assumed): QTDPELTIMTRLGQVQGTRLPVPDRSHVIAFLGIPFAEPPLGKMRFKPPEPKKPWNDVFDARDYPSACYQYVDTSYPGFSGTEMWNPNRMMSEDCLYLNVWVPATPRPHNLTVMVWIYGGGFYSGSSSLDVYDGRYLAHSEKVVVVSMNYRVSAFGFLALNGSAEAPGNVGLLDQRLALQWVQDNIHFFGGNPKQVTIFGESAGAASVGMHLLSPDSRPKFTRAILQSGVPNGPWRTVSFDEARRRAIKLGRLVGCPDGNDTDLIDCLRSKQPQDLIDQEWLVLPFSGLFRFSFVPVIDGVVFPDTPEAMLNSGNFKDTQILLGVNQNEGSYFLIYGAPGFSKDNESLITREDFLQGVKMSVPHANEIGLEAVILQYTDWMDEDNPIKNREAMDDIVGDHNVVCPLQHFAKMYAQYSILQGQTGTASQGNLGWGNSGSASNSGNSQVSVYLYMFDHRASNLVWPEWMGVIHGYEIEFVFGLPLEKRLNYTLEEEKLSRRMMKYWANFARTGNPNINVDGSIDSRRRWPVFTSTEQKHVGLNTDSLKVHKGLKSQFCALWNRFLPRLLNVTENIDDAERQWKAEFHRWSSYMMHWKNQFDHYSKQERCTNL

[10] = Antioxidant activity assessed as increase in total ferric ion reducing activity at 75 uM using FeCl3.H2O and TPTZ incubated for 30 mins by FRAP assay relative to control; type: functional; design: scale not given: the % may be the effect or the level left
[11] = Antioxidant activity assessed as ABTS radical scavenging activity at 30 uM measured after 60 mins by spectrophotometric assay relative to control; type: functional
[12] = Antioxidant activity assessed as ABTS radical scavenging activity at 75 uM measured after 5 mins by spectrophotometric assay relative to control; type: functional
[13] = Antioxidant activity assessed as increase in total ferric ion reducing activity at 30 uM using FeCl3.H2O and TPTZ incubated for 60 mins by FRAP assay relative to control; type: functional; design: scale not given: the % may be the effect or the level left
[14] = Antioxidant activity assessed as ABTS radical scavenging activity at 75 uM measured after 60 mins by spectrophotometric assay relative to control; type: functional
[15] = Antioxidant activity assessed as ABTS radical scavenging activity at 30 uM measured after 5 mins by spectrophotometric assay relative to control; type: functional
[16] = Metal chelating activity assessed as Cu2+-compound complex formation at 50 uM after 30 mins by UV-Visible spectrophotometric method
[17] = Antioxidant activity assessed as ABTS radical scavenging activity at 75 uM measured after 30 mins by spectrophotometric assay relative to control; type: functional
[18] = Antioxidant activity assessed as ABTS radical scavenging activity at 150 uM measured after 30 mins by spectrophotometric assay relative to control; type: functional
[19] = target: Amyloid-beta precursor protein (Homo sapiens) (UniProt P05067); assay: Inhibition of HFIP-pretreated amyloid beta (1 to 42) (unknown origin) aggregation at 10 uM after 48 hrs measured every 3 mins by thioflavin T-based fluorometric assay relative to control
Chain of Amyloid-beta precursor protein (Homo sapiens) (P05067 whole entry): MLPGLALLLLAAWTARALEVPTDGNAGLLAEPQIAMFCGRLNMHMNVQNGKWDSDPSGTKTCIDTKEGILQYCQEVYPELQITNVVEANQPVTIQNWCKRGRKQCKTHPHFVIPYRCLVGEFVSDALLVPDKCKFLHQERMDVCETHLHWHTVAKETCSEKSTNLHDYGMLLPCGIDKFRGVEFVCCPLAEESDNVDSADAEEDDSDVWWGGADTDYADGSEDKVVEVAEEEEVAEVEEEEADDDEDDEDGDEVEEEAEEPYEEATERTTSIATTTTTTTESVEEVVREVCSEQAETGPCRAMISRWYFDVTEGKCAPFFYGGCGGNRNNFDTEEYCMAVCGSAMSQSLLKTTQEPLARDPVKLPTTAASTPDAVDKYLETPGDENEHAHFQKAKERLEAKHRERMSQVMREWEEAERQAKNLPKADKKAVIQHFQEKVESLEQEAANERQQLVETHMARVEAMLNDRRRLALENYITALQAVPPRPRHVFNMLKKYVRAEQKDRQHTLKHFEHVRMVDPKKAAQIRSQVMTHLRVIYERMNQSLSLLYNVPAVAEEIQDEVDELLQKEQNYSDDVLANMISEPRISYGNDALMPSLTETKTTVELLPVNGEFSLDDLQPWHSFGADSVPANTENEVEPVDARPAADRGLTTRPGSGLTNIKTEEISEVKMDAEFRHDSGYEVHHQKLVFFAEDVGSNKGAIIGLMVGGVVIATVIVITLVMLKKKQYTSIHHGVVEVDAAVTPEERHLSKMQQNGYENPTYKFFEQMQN

[20] = Antioxidant activity assessed as increase in total ferric ion reducing activity at 30 uM using FeCl3.H2O and TPTZ incubated for 5 mins by FRAP assay relative to control; type: functional; design: scale not given: the % may be the effect or the level left
[21] = target: Amyloid-beta precursor protein (Homo sapiens) (UniProt P05067); settings: at 10 µM
Description: Inhibition of amyloid beta (1 to 42) (unknown origin) aggregation at 10 uM expressed in Escherichia coli BL21 (DE3) incubated for 24 hrs by thioflavin T-based fluorometric assay relative to control

[22] = Antioxidant activity assessed as ABTS radical scavenging activity at 150 uM measured after 60 mins by spectrophotometric assay relative to control; type: functional
[23] = Antioxidant activity assessed as increase in total ferric ion reducing activity at 75 uM using FeCl3.H2O and TPTZ incubated for 60 mins by FRAP assay relative to control; type: functional; design: scale not given: the % may be the effect or the level left
[24] = target: Cholinesterase (Equus caballus) (UniProt P81908); assay: Inhibition of equine serum BuChE at 10 uM using butyrylthiocholine chloride as substrate pre-incubated for 5 mins followed by substrate addition and measured after 5 mins by Ellman's method relative to control
Chain of Cholinesterase (Equus caballus) (P81908 whole entry): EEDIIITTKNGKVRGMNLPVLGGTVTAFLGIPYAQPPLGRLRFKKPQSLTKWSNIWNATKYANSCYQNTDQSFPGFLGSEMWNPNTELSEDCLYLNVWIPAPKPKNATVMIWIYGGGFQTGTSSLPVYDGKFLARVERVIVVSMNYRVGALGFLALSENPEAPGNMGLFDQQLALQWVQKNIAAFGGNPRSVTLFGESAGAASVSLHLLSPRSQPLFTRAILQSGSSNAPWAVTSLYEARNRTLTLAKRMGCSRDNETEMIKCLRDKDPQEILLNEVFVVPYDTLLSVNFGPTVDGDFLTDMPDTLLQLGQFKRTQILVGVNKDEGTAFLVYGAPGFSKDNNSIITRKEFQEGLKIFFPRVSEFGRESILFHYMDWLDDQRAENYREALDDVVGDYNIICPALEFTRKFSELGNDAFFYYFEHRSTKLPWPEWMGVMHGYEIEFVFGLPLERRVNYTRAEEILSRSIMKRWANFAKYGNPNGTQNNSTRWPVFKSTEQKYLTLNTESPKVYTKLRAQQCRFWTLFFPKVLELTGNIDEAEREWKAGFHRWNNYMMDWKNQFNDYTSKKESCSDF

[25] = target: T1, Beta-secretase 1 (Homo sapiens, UniProt P56817); settings: 50 uM
T1 sequence (P56817 whole entry): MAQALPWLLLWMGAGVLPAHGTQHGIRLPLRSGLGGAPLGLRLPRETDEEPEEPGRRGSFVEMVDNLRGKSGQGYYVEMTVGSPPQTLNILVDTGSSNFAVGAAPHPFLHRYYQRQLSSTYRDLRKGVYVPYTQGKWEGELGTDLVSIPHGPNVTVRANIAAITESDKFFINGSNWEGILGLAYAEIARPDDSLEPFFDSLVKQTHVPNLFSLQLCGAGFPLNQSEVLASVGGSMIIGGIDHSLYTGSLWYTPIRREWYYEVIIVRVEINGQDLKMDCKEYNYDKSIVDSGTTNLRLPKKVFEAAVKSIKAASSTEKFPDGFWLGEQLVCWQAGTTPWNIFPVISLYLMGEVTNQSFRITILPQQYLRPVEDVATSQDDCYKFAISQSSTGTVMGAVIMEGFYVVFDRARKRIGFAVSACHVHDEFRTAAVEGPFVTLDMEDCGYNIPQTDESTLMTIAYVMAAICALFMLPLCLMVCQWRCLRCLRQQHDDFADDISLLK

[26] = target: T2, Cholinesterase (Equus caballus, UniProt P81908)
T2 sequence (P81908 whole entry): as the sequence (P81908 whole entry) above
Description: Inhibition of equine serum BuChE using butyrylthiocholine chloride as substrate pre-incubated for 5 mins followed by substrate addition and measured after 5 mins by Ellman's method

[27] = target: T1, Beta-secretase 1; assay: Inhibition of BACE1 (unknown origin)
[28] = target: T2, Cholinesterase; assay: Inhibition of equine BuChE
[29] = target: T1, Beta-secretase 1

| SMILES | inhibition [1] [%] | Activity [2] [%] | Activity [3] [%] | Activity [4] [%] | Activity [5] [%] | Activity [6] [%] | Activity [7] [%] | Activity [8] [%] | inhibition [9] [%] | Activity [10] [%] | Activity [11] [%] | Activity [12] [%] | Activity [13] [%] | Activity [14] [%] | Activity [15] [%] | Activity [16] | Activity [17] [%] | Activity [18] [%] | inhibition [21] [%] | inhibition [25] [%] | further results |
| --- | --- | --- | --- | --- | --- | --- | --- | --- | --- | --- | --- | --- | --- | --- | --- | --- | --- | --- | --- | --- | --- |
| c1ccc(CN2CCN(CCNC3CCN(Cc4ccccc4)C3)CC2)cc1 (stereo not drawn) | 60.6 | 54 | 17 | 48 | 13 | 45 | 36 | 51 | < 10 | 27 | 43 | 26 | 15 | 58 | 18 | Active | 50 | 84 | 37.9 | 13.6 | inhibition [19]: 19.2%; Activity [20]: 9%; Activity [22]: 93%; Activity [23]: 30%; inhibition [24]: 36.7% |
| c1ccc(CC2CCN(CCNC3CCN(Cc4ccccc4)C3)CC2)cc1 (stereo not drawn) | 61 | 21 | 6 | 20 | 2 | 13 | 12 | 22 | 21.2 | 11 | 17 | 11 | 3 | 27 | 9 | Active | 21 | 43 | 36.6 | < 10 | IC50 [26]: 0.62 µM; Activity [20]: 1%; Activity [22]: 55%; Activity [23]: 13% |
| Cc1c(OCc2ccccc2)cccc1N1CCN(CC(=O)NC2CCN(Cc3ccccc3)C2)CC1 (stereo not drawn) | – | – | – | – | – | – | – | – | – | – | – | – | – | – | – | Active | – | – | – | – | IC50 [27]: 33 µM; IC50 [28]: 76 µM |
| c1ccc(CN2CCC(NCCN3CCC(C(c4ccccc4)c4ccccc4)CC3)C2)cc1 (stereo not drawn) | 60.4 | – | – | – | – | – | – | – | 25.2 | – | – | – | – | – | – | – | – | – | 31.7 | 54.3 | IC50 [29]: 49.8 µM; inhibition [24]: 44.2% |
| O=C(CN1CCC(C(c2ccccc2)c2ccccc2)CC1)NC1CCN(Cc2ccccc2)C1 (stereo not drawn) | 64.3 | – | – | – | – | – | – | – | < 10 | – | – | – | – | – | – | – | – | – | 53.3 | 52.2 | inhibition [19]: 35.3%; IC50 [29]: 55.2 µM; inhibition [24]: 24.6% |
| O=C(CN1CCC(Cc2ccccc2)CC1)NC1CCN(Cc2ccccc2)C1 (stereo not drawn) | 66.8 | 11 | 2 | 6 | 16 | 5 | 9 | 8 | < 10 | 5 | 10 | 8 | 4 | 14 | 7 | – | 12 | 20 | 35 | 55.6 | inhibition [19]: 22.1%; Activity [20]: 5%; Activity [22]: 27%; Activity [23]: 6%; inhibition [24]: 36.1% |
| c1ccc(CCC2CCN(CCNC3CCN(Cc4ccccc4)C3)CC2)cc1 (stereo not drawn) | 67.8 | 3 | 1 | 13 | 2 | 11 | 12 | 16 | < 10 | 6 | 18 | 12 | 3 | 33 | 8 | Active | 24 | 29 | 41 | 31 | IC50 [26]: 7.39 µM; Activity [20]: 2%; Activity [22]: 45%; Activity [23]: 9% |
| c1ccc(CN2CCC(NCCN3CCN(C(c4ccccc4)c4ccccc4)CC3)C2)cc1 (stereo not drawn) | 64 | 51 | 4 | 21 | 8 | 19 | 41 | 25 | 27.6 | 10 | 47 | 29 | 11 | 59 | 22 | Active | 52 | 77 | 31.6 | 34.2 | inhibition [19]: 27.7%; Activity [20]: 4%; Activity [22]: 84%; Activity [23]: 12%; inhibition [24]: 46.2% |
